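Values below derive from 48-hour exposures of cells grown in 96-well plates, with endpoints linearly interpolated between the two concentrations bracketing the appropriate inhibition level. Here, GI50 denotes the concentration required for 50% inhibition of growth. The concentration for full growth arrest is given as TGI.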
Columns and labels:
Experiment in all cases: NCI tumour cell line growth inhibition, 48 h
[1] = test system: SK-OV-3 ovarian
[2] = test system: KM12 colon
[3] = test system: DU-145 prostate
[4] = test system: MOLT-4 leukemia
[5] = test system: SK-MEL-2 melanoma
[6] = test system: CAKI-1 renal
[7] = test system: BT-549 breast
[8] = test system: NCI-H460 lung
[9] = test system: LOX IMVI melanoma
[10] = test system: NCI-H522 lung

Question: For `COc1ccc(CCN2COc3ccc4ccc(=O)oc4c3C2)cc1OC`, which TGI [1] is on record?
Answer: > 100 µM

Question: What about the TGI [2] of the same compound?
Answer: > 100 µM

Question: And the TGI [3]?
Answer: > 100 µM

Question: What about the TGI [4] of the same compound?
Answer: > 100 µM

Question: And the TGI [5]?
Answer: > 100 µM

Question: What about the TGI [6] of the same compound?
Answer: > 100 µM

Question: And the TGI [7]?
Answer: > 100 µM

Question: And the TGI [8]?
Answer: > 100 µM

Question: What about the TGI [9] of the same compound?
Answer: 49.4 µM

Question: And the TGI [10]?
Answer: > 100 µM

Question: How did the GI50 [1] turn out when `CS(=O)(=O)c1ccc(-c2[nH]c3ccc(F)cc3c2/C=N/NC(N)=S)cc1` was run?
Answer: 1.86 µM

Question: What about the TGI [1] of the same compound?
Answer: > 100 µM

Question: What about the GI50 [2] of the same compound?
Answer: 0.73 µM

Question: And the TGI [2]?
Answer: 28.8 µM

Question: What about the GI50 [3] of the same compound?
Answer: 2.24 µM

Question: And the TGI [3]?
Answer: > 100 µM

Question: And the GI50 [4]?
Answer: 0.981 µM

Question: And the TGI [4]?
Answer: 24 µM

Question: What about the GI50 [5] of the same compound?
Answer: 10.6 µM

Question: What about the TGI [5] of the same compound?
Answer: > 100 µM

Question: What about the GI50 [6] of the same compound?
Answer: 3.86 µM

Question: What about the TGI [6] of the same compound?
Answer: > 100 µM

Question: What about the GI50 [7] of the same compound?
Answer: 1.61 µM

Question: What about the TGI [7] of the same compound?
Answer: 34.4 µM

Question: And the GI50 [8]?
Answer: 2.28 µM

Question: What about the TGI [8] of the same compound?
Answer: > 100 µM

Question: And the GI50 [9]?
Answer: 0.84 µM

Question: What about the TGI [9] of the same compound?
Answer: > 100 µM

Question: And the GI50 [10]?
Answer: 0.466 µM

Question: And the TGI [10]?
Answer: 3.75 µM

Question: For `COc1ccc2cc(C(=O)/C=C/c3ccco3)ccc2c1`, which GI50 [1] is on record?
Answer: 53.1 µM

Question: What about the TGI [1] of the same compound?
Answer: > 100 µM

Question: What about the GI50 [2] of the same compound?
Answer: 34.5 µM

Question: And the TGI [2]?
Answer: > 100 µM

Question: What about the GI50 [3] of the same compound?
Answer: 23.9 µM

Question: What about the TGI [3] of the same compound?
Answer: 88.6 µM

Question: And the GI50 [4]?
Answer: 41.7 µM

Question: And the TGI [4]?
Answer: > 100 µM

Question: And the GI50 [5]?
Answer: 21.6 µM

Question: What about the TGI [5] of the same compound?
Answer: 59.1 µM

Question: And the GI50 [6]?
Answer: 38.7 µM

Question: What about the TGI [6] of the same compound?
Answer: > 100 µM

Question: What about the GI50 [7] of the same compound?
Answer: 20.4 µM

Question: What about the TGI [7] of the same compound?
Answer: 43.8 µM

Question: And the GI50 [8]?
Answer: 22.7 µM

Question: What about the TGI [8] of the same compound?
Answer: 52.6 µM

Question: What about the GI50 [9] of the same compound?
Answer: 54 µM

Question: What about the TGI [9] of the same compound?
Answer: > 100 µM

Question: And the GI50 [10]?
Answer: 19.7 µM

Question: What about the TGI [10] of the same compound?
Answer: 58.5 µM

Question: `CC#CC(=O)N[C@H]1CCCN(c2c(F)cc(C(N)=O)c3[nH]c(C)c(C)c23)C1` was tested. Which GI50 [1] did it give?
Answer: 14.4 µM

Question: And the TGI [1]?
Answer: 59.6 µM

Question: And the GI50 [2]?
Answer: 14.3 µM

Question: What about the TGI [2] of the same compound?
Answer: 46.4 µM

Question: And the GI50 [3]?
Answer: 26.1 µM

Question: What about the TGI [3] of the same compound?
Answer: 88.5 µM

Question: What about the GI50 [4] of the same compound?
Answer: 18.8 µM

Question: What about the TGI [4] of the same compound?
Answer: 93.6 µM

Question: And the GI50 [5]?
Answer: 16.4 µM

Question: And the TGI [5]?
Answer: 35.7 µM

Question: What about the GI50 [6] of the same compound?
Answer: 13.4 µM

Question: And the TGI [6]?
Answer: 34.1 µM

Question: And the GI50 [7]?
Answer: 14.9 µM

Question: And the TGI [7]?
Answer: 30.3 µM

Question: What about the GI50 [8] of the same compound?
Answer: 18.1 µM

Question: And the TGI [8]?
Answer: 33.4 µM

Question: And the GI50 [9]?
Answer: 14.9 µM

Question: What about the TGI [9] of the same compound?
Answer: 28.1 µM

Question: And the GI50 [10]?
Answer: 14.4 µM

Question: What about the TGI [10] of the same compound?
Answer: 34.1 µM

Question: What does the source list for `CN1CCN(CCCOc2ccc3nc(Nc4ccc(C(F)(F)F)c(Cl)c4)ccc3c2)CC1`?
Answer: GI50 [1]: 1.81 µM; TGI [1]: 3.49 µM; GI50 [2]: 1.5 µM; TGI [2]: 3.05 µM; GI50 [3]: 1.58 µM; TGI [3]: 3.09 µM; GI50 [4]: 1.63 µM; TGI [4]: 3.91 µM; GI50 [5]: 2.44 µM; TGI [5]: 4.46 µM; GI50 [6]: 1.72 µM; TGI [6]: 3.82 µM; GI50 [7]: 1.84 µM; TGI [7]: 3.53 µM; GI50 [8]: 1.88 µM; TGI [8]: 4.14 µM; GI50 [9]: 1.07 µM; TGI [9]: 2.32 µM; GI50 [10]: 2.02 µM; TGI [10]: 3.74 µM

Question: How did the TGI [1] turn out when `O=C(O)C1CCCCC1C(=O)Nc1nc2ccccc2[nH]1` (centres undefined) was run?
Answer: > 100 µM

Question: What about the TGI [2] of the same compound?
Answer: > 100 µM

Question: And the TGI [3]?
Answer: > 100 µM

Question: And the TGI [4]?
Answer: > 100 µM

Question: What about the TGI [5] of the same compound?
Answer: > 100 µM

Question: What about the TGI [6] of the same compound?
Answer: > 100 µM

Question: And the TGI [7]?
Answer: > 100 µM

Question: What about the TGI [8] of the same compound?
Answer: > 100 µM

Question: What about the TGI [9] of the same compound?
Answer: > 100 µM

Question: What about the TGI [10] of the same compound?
Answer: > 100 µM

Question: `COCO[C@@H]1CC2C=Nc3cc(OCc4ccccc4)c(OC)cc3C(=O)N2C1` (some centres undefined) was tested. Which GI50 [1] did it give?
Answer: 0.611 µM

Question: And the TGI [1]?
Answer: 6.2 µM

Question: What about the GI50 [2] of the same compound?
Answer: 0.578 µM

Question: And the TGI [2]?
Answer: 10.6 µM

Question: What about the GI50 [3] of the same compound?
Answer: 0.426 µM

Question: What about the TGI [3] of the same compound?
Answer: 5.24 µM

Question: What about the GI50 [4] of the same compound?
Answer: 0.175 µM

Question: What about the GI50 [5] of the same compound?
Answer: 0.49 µM

Question: What about the TGI [5] of the same compound?
Answer: 2.08 µM

Question: And the GI50 [6]?
Answer: 0.209 µM

Question: And the TGI [6]?
Answer: 0.513 µM

Question: And the GI50 [7]?
Answer: 0.31 µM

Question: And the TGI [7]?
Answer: 2.39 µM

Question: And the GI50 [8]?
Answer: 0.36 µM

Question: And the TGI [8]?
Answer: 14.3 µM

Question: What about the GI50 [9] of the same compound?
Answer: 0.305 µM

Question: And the TGI [9]?
Answer: 10.4 µM

Question: What about the GI50 [10] of the same compound?
Answer: 0.152 µM

Question: What about the TGI [10] of the same compound?
Answer: 0.64 µM
